Test results as given in patent US9611263B2, “Compounds that modulate intracellular calcium” (CALCIMEDICA, INC., priority 2013, dated 2017).

Columns and labels:
Orai1/STIM1 = molecular target: T1, Orai1/STIM1 (Homo sapiens, UniProt Q96D31); experiment: Fluorescence-based assay of store-operated calcium entry in Orai1/STIM1 stable cells; format: cell-based; conditions: HEK-293 cells stably expressing human STIM1 and Orai1; 50% inhibition of Peak-Basal fluorescence signal; read-out: Orai1/STIM1 (IC50, μmol)
T1 construct: expressed in transfected cells
T1 sequence (Q96D31 whole entry): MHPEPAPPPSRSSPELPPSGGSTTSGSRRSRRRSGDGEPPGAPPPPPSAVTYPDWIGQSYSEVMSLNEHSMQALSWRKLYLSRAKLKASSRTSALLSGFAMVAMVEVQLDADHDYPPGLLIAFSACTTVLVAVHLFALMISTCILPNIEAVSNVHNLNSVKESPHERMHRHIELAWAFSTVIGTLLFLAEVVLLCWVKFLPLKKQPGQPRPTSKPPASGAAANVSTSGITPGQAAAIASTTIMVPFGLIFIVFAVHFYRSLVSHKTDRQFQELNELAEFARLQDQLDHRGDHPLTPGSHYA
Procedure: A. Fluorescence-Based Assay of Store-Operated Calcium Entry in Orai1/STIM1 Stable Cells.
Cells stably expressing recombinant human STIM1 and Orai1 are generated by transfecting a human Orai1 expression plasmid (pcDNA3.1-Orai1-cmyc) into HEK-293 cells stably overexpressing human STIM1 (Roos et al. 2005 JCB 169(3): 435-445). Colonies of cells stably expressing both STIM1 and Orai1 proteins are selected and then subcloned by limiting dilution. Cells were cultured at 37° C./6% CO2 in complete medium with 10% FBS and appropriate selection markers.
The day prior to performing the assay Orai1/STIM1 stable cells are plated in 50 μL of complete medium at 90-95% confluence in a 384 well plate. Cells are grown at 37° C./6% CO2 overnight. On the day of the assay, 1.5 μM fluo-4-AM (Invitrogen) in complete medium is added to the cells, which are then incubated for 1 hour at RT. Cells are washed once in Ca^2+-free HBSS (Hank's buffered saline solution) and 35 μl of Ca^2+-free HBSS is added to each well. Test compounds are added to wells in a 10 μL Ca^2+-free HBSS solution, prepared at 4.5× the desired final concentration, and incubated for 30 minutes at RT. The initial baseline fluorescence signal is then measured with a FLIPR^384 (Molecular Devices) plate reader. Calcium entry is initiated by adding 5 μl of 10× CaCl2 (10 mM) in HBSS, and changes in cellular fluorescence are measured with the FLIPR^384 plate reader. In each well, the magnitude of the fluorescence signal as a result of calcium entry into the cell is determined by calculating the difference between the peak fluorescence signal measured after calcium addition and the initial baseline fluorescence signal (designated Peak-Basal). IC50 values are typically calculated as the concentration that inhibited 50% of the Peak-Basal signal.

RBL-2H3 cells = experiment: Fluorescence-based assay of store-operated calcium entry in RBL-2H3 cells; format: cell-based, rat; conditions: Rattus norvegicus, RBL-2H3; thapsigargin; 50% inhibition of Upslope; read-out: RBL-2H3 (IC50, μmol)
Procedure: B. Fluorescence-Based Assay of Store-Operated Calcium Entry in RBL-2H3 Cells.
RBL-2H3 cells are obtained from ATCC and maintained in complete medium with 10% FBS at 37° C./6% CO2.
The day prior to performing the assay, RBL-2H3 cells are plated in 50 μL of complete medium in a 384 well plate. Cells are grown at 37° C./6% CO2 overnight and grow to 50-60% confluence by the next day. On the assay day, 1.5 μM Fluo-4-AM dye (Invitrogen) in complete medium is added and incubated for 1 hour at RT. Cells are washed twice in Ca^2+-free HBSS buffer and 35 μL Ca^2+-free HBSS buffer is added to each well. 10 μL of a test compound prepared in a Ca^2+-free HBSS solution at 4.5× of the desired concentration is added to a well and incubated for 5 minutes at RT. 10 μL of thapsigargin prepared in a Ca^2+-free HBSS solution at 5.5× of the desired concentration (5.5 uM) is added to each well and incubated for an additional 25 minutes. The initial baseline fluorescence signal is measured with a FLIPR^384 (Molecular Devices) plate reader. 5 μL of 12× calcium in HBSS (12 mM) is added and changes in cellular fluorescence are measured with the FLIPR^384 plate reader. In each well, the change in the fluorescent signal as a function of time due to calcium entry into the cell is determined by calculating the difference between the fluorescent signal measured 7 seconds after calcium addition and the initial baseline fluorescence signal at time zero (t=0). This parameter is designated Upslope. The IC50 value is calculated as the concentration at which 50% of the Upslope is inhibited.

Row | SMILES | IC50 (Orai1/STIM1) | IC50 (RBL-2H3 cells)
1 | CCc1nn(-c2nccs2)cc1-c1ccc(NC(=O)c2c(F)cccc2F)cc1 [Example 6, N-(4-(3-ethyl-1-(thiazol-2-yl)-1H-pyrazol-4-yl)phenyl)-2,6-difluorobenzamide] | < 600 nM | < 600 nM
2 | Cc1nn(-c2nccs2)cc1-c1ccc(NC(=O)c2ccccc2F)cc1 [Example 2, 2-fluoro-N-(4-(3-methyl-1-(thiazol-2-yl)-1H-pyrazol-4-yl)phenyl)benzamide] | < 600 nM | < 600 nM
3 | Cc1nn(-c2nccs2)cc1-c1ccc(NC(=O)c2c(F)cccc2F)cc1F [Example 10, 2,6-difluoro-N-(3-fluoro-4-(3-methyl-1-(thiazol-2-yl)-1H-pyrazol-4-yl)phenyl)benzamide] | < 600 nM | < 600 nM
4 | Cc1cccc(F)c1C(=O)Nc1cnc(-c2cn(-c3nccs3)nc2C)cn1 [Example 26, 2-fluoro-6-methyl-N-(5-(3-methyl-1-(thiazol-2-yl)-1H-pyrazol-4-yl)pyrazin-2-yl)benzamide] | < 600 nM | < 600 nM
5 | Cc1nn(-c2nccs2)cc1-c1cnc(NC(=O)c2c(F)cc(F)cc2F)cn1 [Example 28, 2,4,6-trifluoro-N-(5-(3-methyl-1-(thiazol-2-yl)-1H-pyrazol-4-yl)pyrazin-2-yl)benzamide] | < 600 nM | < 600 nM
6 | Cc1nn(-c2nccs2)cc1-c1ccc(NC(=O)c2ccccc2OC(F)F)s1 [Example 72, 2-(difluoromethoxy)-N-(5-(3-methyl-1-(thiazol-2-yl)-1H-pyrazol-4-yl)thiophen-2-yl)benzamide] | 600 to 1200 nM | > 1200 nM
7 | Cc1nn(-c2nccs2)cc1-c1cnc(NC(=O)c2ccccc2F)cn1 [Example 25, 2-fluoro-N-(5-(3-methyl-1-(thiazol-2-yl)-1H-pyrazol-4-yl)pyrazin-2-yl)benzamide] | < 600 nM | < 600 nM
8 | CCc1nn(-c2nccs2)cc1-c1ccc(NC(=O)c2c(F)cc(F)cc2F)cc1F [Example 33, N-(4-(3-ethyl-1-(thiazol-2-yl)-1H-pyrazol-4-yl)-3-fluorophenyl)-2,4,6-trifluorobenzamide] | > 1200 nM | < 600 nM
9 | CCc1nn(-c2nccs2)cc1-c1ccc(NC(=O)c2c(F)cccc2F)cc1F [Example 31, N-(4-(3-ethyl-1-(thiazol-2-yl)-1H-pyrazol-4-yl)-3-fluorophenyl)-2,6-difluorobenzamide] | < 600 nM | < 600 nM
10 | CCc1nn(-c2nccs2)cc1-c1ccc(NC(=O)c2c(F)cccc2F)s1 [Example 73, N-(5-(3-ethyl-1-(thiazol-2-yl)-1H-pyrazol-4-yl)thiophen-2-yl)-2,6-difluorobenzamide] | 600 to 1200 nM | < 600 nM
11 | Cc1nn(-c2nccs2)cc1-c1ccc(NC(=O)c2cc(F)nc(F)c2)cc1F [Example 16, 2,6-difluoro-N-(3-fluoro-4-(3-methyl-1-(thiazol-2-yl)-1H-pyrazol-4-yl)phenyl)isonicotinamide] | < 600 nM | < 600 nM
12 | Cc1nn(-c2ccccc2F)cc1-c1ccc(NC(=O)c2ccccc2OC(F)F)nc1 [Example 61, 2-(difluoromethoxy)-N-(5-(1-(2-fluorophenyl)-3-methyl-1H-pyrazol-4-yl)pyridin-2-yl)benzamide] | > 1200 nM | > 1200 nM
13 | Cc1cn(-c2nccs2)nc1-c1ccc(NC(=O)c2c(F)cccc2F)cc1F [Example 66, 2,6-difluoro-N-(3-fluoro-4-(4-methyl-1-(thiazol-2-yl)-1H-pyrazol-3-yl)phenyl)benzamide] | > 1200 nM | < 600 nM

Results, then the compound that gave them:

Row | IC50 (Orai1/STIM1) | IC50 (RBL-2H3 cells) | SMILES
14 | < 600 nM | < 600 nM | Cc1nn(-c2nccs2)cc1-c1ccc(NC(=O)c2cc(F)nc(F)c2)nc1 [Example 23, 2,6-difluoro-N-(5-(3-methyl-1-(thiazol-2-yl)-1H-pyrazol-4-yl)pyridin-2-yl)isonicotinamide]
15 | < 600 nM | < 600 nM | O=C(Nc1ccc(-c2cn(-c3nccs3)nc2C2CC2)cn1)c1c(F)cccc1F [Example 44, N-(5-(3-cyclopropyl-1-(thiazol-2-yl)-1H-pyrazol-4-yl)pyridin-2-yl)-2,6-difluorobenzamide]
16 | < 600 nM | < 600 nM | Cc1nn(-c2nccs2)cc1-c1ccc(NC(=O)c2c(F)cc(F)cc2F)nc1 [Example 21, 2,4,6-trifluoro-N-(5-(3-methyl-1-(thiazol-2-yl)-1H-pyrazol-4-yl)pyridin-2-yl)benzamide]
17 | 600 to 1200 nM | < 600 nM | O=C(Nc1ccc(-c2cn(-c3nccs3)nc2C2CC2)cn1)c1c(F)cc(F)cc1F [Example 46, N-(5-(3-cyclopropyl-1-(thiazol-2-yl)-1H-pyrazol-4-yl)pyridin-2-yl)-2,4,6-trifluorobenzamide]
18 | < 600 nM | < 600 nM | Cc1nn(-c2nccs2)cc1-c1ccc(NC(=O)c2c(F)ccc(F)c2F)cc1F [Example 13, 2,3,6-trifluoro-N-(3-fluoro-4-(3-methyl-1-(thiazol-2-yl)-1H-pyrazol-4-yl)phenyl)benzamide]
19 | < 600 nM | > 1200 nM | Cc1nn(-c2cc(F)ccc2F)cc1-c1ccc(NC(=O)c2c(F)ccc(F)c2F)nc1 [Example 56, N-(5-(1-(2,5-difluorophenyl)-3-methyl-1H-pyrazol-4-yl)pyridin-2-yl)-2,3,6-trifluorobenzamide]
20 | < 600 nM | < 600 nM | Cc1nn(-c2nccs2)cc1-c1ccc(NC(=O)c2c(F)cccc2F)nc1 [Example 18, 2,6-difluoro-N-(5-(3-methyl-1-(thiazol-2-yl)-1H-pyrazol-4-yl)pyridin-2-yl)benzamide]
21 | < 600 nM | < 600 nM | Cc1nn(-c2nccs2)cc1-c1ccc(NC(=O)c2c(F)ccc(F)c2F)cc1 [Example 4, 2,3,6-trifluoro-N-(4-(3-methyl-1-(thiazol-2-yl)-1H-pyrazol-4-yl)phenyl)benzamide]
22 | 600 to 1200 nM | < 600 nM | Cc1nn(-c2nccs2)cc1-c1cnc(NC(=O)c2c(F)ccc(F)c2F)s1 [Example 67, 2,3,6-trifluoro-N-(5-(3-methyl-1-(thiazol-2-yl)-1H-pyrazol-4-yl)thiazol-2-yl)benzamide]
23 | < 600 nM | < 600 nM | CCc1nn(-c2nccs2)cc1-c1ccc(NC(=O)c2c(F)cc(F)cc2F)nc1 [Example 37, N-(5-(3-ethyl-1-(thiazol-2-yl)-1H-pyrazol-4-yl)pyridin-2-yl)-2,4,6-trifluorobenzamide]
24 | 600 to 1200 nM | < 600 nM | O=C(Nc1ccc(-c2cn(-c3nccs3)nc2C2CC2)cn1)c1c(F)ccc(F)c1F [Example 45, N-(5-(3-cyclopropyl-1-(thiazol-2-yl)-1H-pyrazol-4-yl)pyridin-2-yl)-2,3,6-trifluorobenzamide]
25 | < 600 nM | < 600 nM | Cc1nn(-c2nccs2)cc1-c1ccc(NC(=O)c2ccc(F)c(F)c2F)cc1F [Example 15, 2,3,4-trifluoro-N-(3-fluoro-4-(3-methyl-1-(thiazol-2-yl)-1H-pyrazol-4-yl)phenyl)benzamide]
26 | > 1200 nM |  | Cc1nn(-c2nccs2)cc1-c1cnc(NC(=O)c2ccc(F)c(F)c2F)cn1 [Example 29, 2,3,4-trifluoro-N-(5-(3-methyl-1-(thiazol-2-yl)-1H-pyrazol-4-yl)pyrazin-2-yl)benzamide]
27 | 600 to 1200 nM |  | Cc1nn(-c2nccs2)cc1-c1ccc(NC(=O)c2ccc(F)c(F)c2F)nc1 [Example 22, 2,3,4-trifluoro-N-(5-(3-methyl-1-(thiazol-2-yl)-1H-pyrazol-4-yl)pyridin-2-yl)benzamide]
